Drawing on article PMC4840125, “[^18F]tetrafluoroborate as a PET tracer for the sodium/iodide symporter: the importance of specific activity” (EJNMMI Research, 2016), this text covers IC50 for one compound.

The target in this assay is T1, human sodium/iodide symporter (hNIS) (Homo sapiens, UniProt Q92911).
T1 construct: gene SLC5A5; hNIS stably transfected in HCT116 human colon carcinoma cells (HCT116-hNIS-C19)
T1 sequence (Q92911 1-643): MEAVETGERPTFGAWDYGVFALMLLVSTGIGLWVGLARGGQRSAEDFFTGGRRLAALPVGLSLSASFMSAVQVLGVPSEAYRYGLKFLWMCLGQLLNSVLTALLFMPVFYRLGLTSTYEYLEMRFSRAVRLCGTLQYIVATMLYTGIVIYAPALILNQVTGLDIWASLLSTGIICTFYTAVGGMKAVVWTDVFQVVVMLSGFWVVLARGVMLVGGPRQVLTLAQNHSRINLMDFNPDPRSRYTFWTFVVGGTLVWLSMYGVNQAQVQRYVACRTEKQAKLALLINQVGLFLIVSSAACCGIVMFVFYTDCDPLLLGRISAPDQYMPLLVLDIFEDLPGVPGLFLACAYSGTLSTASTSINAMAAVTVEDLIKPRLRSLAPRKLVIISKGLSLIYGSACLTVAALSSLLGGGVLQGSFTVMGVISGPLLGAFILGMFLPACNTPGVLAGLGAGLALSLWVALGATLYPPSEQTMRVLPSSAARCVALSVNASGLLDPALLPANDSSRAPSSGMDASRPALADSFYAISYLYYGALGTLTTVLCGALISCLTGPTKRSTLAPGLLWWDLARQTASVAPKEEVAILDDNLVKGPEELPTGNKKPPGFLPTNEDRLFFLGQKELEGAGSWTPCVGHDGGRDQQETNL
Kind of assay: inhibition of […]BF4- uptake in hNIS-transfected cells, gamma counting. In kind it is cell-based.

Structures are written as SMILES.

Take `F[B-](F)(F)F` [[19F]BF4-]: the IC50 (commonly the concentration that gives 50% inhibition) was determined as 4.7 µM.
